The values that follow come from US20070020190A1, “Medicament comprising a highly potent long-lasting beta2-agonist in combination with other active ingredients” (priority 2003, published 2007).

Structures can show the parent of a compound that is named as a salt.

The test system of series [1] is isolated guinea pig tracheal strips. Put plainly: Carbachol-induced contraction in isolated guinea pig tracheal strips. An excerpt:
The pharmacological interaction between the β2-adrenoceptor agonist TA 2005 and the M3-receptor antagonist tiotropium bromide was investigated in isolated guinea pig tracheal strips contracted with carbachol.

Series [2] deals with acetylcholine-induced bronchoconstriction in guinea-pigs. Put plainly: Acetylcholine-induced bronchoconstriction in guinea pigs (Konzett and Rossler). Format: in vivo, guinea pig. As to conditions: for ED50, acetylcholine-induced bronchoconstriction: acetylcholine 20 μg/kg iv, superfused onto tracheal mucosa. The method, then:
Guinea pigs were prepared as originally described by Konzett and Rossler, Naunyn-Schmiedeberg's Arch Pharmacol, 1940; 195: 556-557.
Bronchoconstriction was induced by intravenous administration of acetylcholine (20 μg/kg). The antibronchospastic activity of different concentrations of tiotropium (0.1 to 30 pmol) or TA 2005 (0.3 to 100 pmol), alone or in combination, was investigated.

The subject of another series is asthmatic patients. The series is described as follows: Preliminary clinical trial of bronchodilator efficacy (FEV1 by spirometry) in asthmatic patients. The class given is in vivo. As to conditions: single dose of 1 μg, inhalation. The method, then: The bronchodilator efficacy of TA 2005, defined as increase from baseline in the forced expiratory volume over one second (FEV1), measured by spirometry, has been assessed in a preliminary clinical trial in a small group of asthmatic patients.
The results have shown that already following administration of a single dose of 1 μg a mean and persistent increase of FEV1 approximately 30% greater than baseline can be obtained.

For series [3], the system named is isolated tracheal strips from ovalbumin-sensitised guinea pigs. Put plainly: β2-desensitisation in isolated tracheal strips from ovalbumin-sensitised guinea pigs (carbachol-induced contraction). On the set-up: species or system guinea pig. The method, then:
A prolonged use of β2-agonists results in down-regulation of pulmonary β2-adenoceptors. This phenomenon can be counteracted by concomitant treatment with a corticosteroid.
In the present study tracheal strips obtained from ovalbumin-sensitised guinea-pigs (100 mg/kg ip and 100 mg/kg sc, 20 days before sacrifice) were submitted to β2-desensitisation by contact for two 20-min periods with a supra-maximal concentration of salbutamol (5*10^−6 M). In some experiments guinea pigs 24 and 1.5 h before sacrifice received 50 mg/kg ip of budesonide.

In series [4] the test system is rat lung oedema induced by Sephadex. Put plainly: Sephadex-induced lung oedema model. The class given is in vivo. As to conditions: intratracheal; for non effective dose on Sephadex-induced lung oedema: from dose-response curves. The method, then: The rat lung oedema induced by Sephadex is a model which leads to inflammatory cells infiltration and long-lasting interstitial oedema. […] The test substances were suspended in saline and administered intratracheally suitably diluted in the Sephadex suspension. 24 h post-administration, the animals were sacrificed and the lungs removed and weighted. Percent inhibition of the Sephadex-induced oedema was then determined.

In the next series the test system is healthy male volunteers. As to conditions: single inhaled doses 0.8-12.8 μg, cited from earlier work.
Series [5] relates to bronchoconstriction induced by acetaldehyde in the guinea pig. Put plainly: Acetaldehyde-induced bronchoconstriction, histamine release and plasma extravasation in anaesthetized ventilated guinea pigs. Format: in vivo. The method, then:
Pharmacol., 362:184-189, 2000; as well as in a model of acetaldehyde induced bronchoconstriction (Berti et al., Arzneim-Forsch/Drug Res 1994; 44: 323-326).
The protective activity of TA 2005 (0.1 to 10 pmol), formoterol (0.3 to 30 pmol) or budesonide (31.25 to 500 nmol) was determined after intratracheal superfusion alone or in combination.

Broadly, the inhibition is the drop in the measured response relative to a control, in per cent. Higher therefore signals strong suppression. Turning to `COc1ccc(CC(C)NCC(O)c2ccc(O)c3[nH]c(=O)ccc23)cc1` [TA 2005, 8-Hydroxy-5-[(1R)-1-hydroxy-2-[[(1R)-2-(4-methoxyphenyl)-1-methylethyl]amino]ethyl-2(1H)-quinolinone hydrochloride salt], in series [1] (Cavia porcellus, TA 2005 10^−12 M), the inhibition at 1 pM was 29.3 ± 6.1%. Moreover, the “inhibition of the effect of acetylcholine” value in series [2] (3 pmol of TA 2005 in the absence of tiotropium) amounted to 18%. In addition, the “ED50, acetylcholine-induced bronchoconstriction” value in series [2] is 16.7 pmol. In addition, the “mean and persistent increase of FEV1 greater than baseline” value with asthmatic patients is “approximately 30%”. Also, the “loss of potency in relaxing the carbachol-induced contraction” value in series [3] (after β2-desensitisation with salbutamol 5*10^−6 M) is reported as “about 3 times”. Moreover, the “potentiation of relaxing effects” value in series [3] (after β2-desensitisation, budesonide pretreatment 50 mg/kg ip 24 and 1.5 h before sacrifice) is “about 6 times”. Moreover, the “non effective dose on Sephadex-induced lung oedema” value in series [4] amounted to 0.01 nmol/kg. Further, in the series with healthy male volunteers (metered dose nebuliser system), the “maximum no adverse effect dose” value was 9.6 µg. The “effect on heart rate, tremor, pulmonary function and plasma potassium” value in the series with healthy male volunteers is “dose-dependent increase in heart rate, tremor and pulmonary function and a decrease in plasma potassium”.

On to `CCCC1O[C@@H]2C[C@H]3[C@@H]4CCC5=CC(=O)C=C[C@]5(C)[C@H]4[C@@H](O)C[C@]3(C)[C@]2(C(=O)CO)O1` (stereo partly shown) [budesonide], for which the “ED50, bronchoconstriction” value in series [5] (budesonide alone, intratracheal superfusion) came to 396 nmol. The “fold reduction of budesonide ED50, bronchoconstriction” value was 5.3 fold in series [5] (combined with 0.1 pmol of TA 2005), 14.3 fold in series [5] (combined with 0.3 pmol of TA 2005), 3.0 fold in series [5] (combined with 0.3 pmol of formoterol) and 5.9 fold in series [5] (combined with 1 pmol of formoterol). Besides, in series [4] (budesonide alone (absence of TA 2005)), the “dose of budesonide needed to significantly inhibit Sephadex-induced lung oedema” value amounted to 240 nmol/kg. Further, the “dose of budesonide significantly inhibiting Sephadex-induced lung oedema” value in series [4] (in the presence of TA 2005 (0.01 nmol/kg)) came out at 15 nmol/kg. For the same compound, the “dose of budesonide giving significant reduction in Sephadex-induced lung weight increase” value in series [4] (in the presence of formoterol (0.1 nmol/kg)) was found to be 120 nmol/kg.

`COc1ccc(CC(C)NCC(O)c2ccc(O)c(NC=O)c2)cc1` (stereo not shown) [formoterol]: the “decline of anti-bronchoconstrictive effect after 240 min” value in series [5] (30 pmol, intratracheal superfusion) is listed as roughly 50%. In addition, in series [5] (intratracheal superfusion, TA 2005 0.1-10 pmol, formoterol 0.3-30 pmol, budesonide 31.25-500 nmol), the “effect on AcCHO effects (bronchoconstriction, histamine release, plasma extravasation)” value was “potently antagonised”. The “effect on Sephadex-induced lung oedema” value in series [4] (24 h post-administration, TA 2005 0.001-0.1, formoterol 0.01-2, budesonide 15-480 nmol/kg) was “dose-dependent remission”. In addition, the “non effective dose on Sephadex-induced lung oedema” value in series [4] is reported as 0.1 nmol/kg.

Turning to `C[N+]1(C)[C@@H]2C[C@@H](OC(=O)C(O)(c3cccs3)c3cccs3)C[C@H]1[C@@H]1O[C@@H]12` [tiotropium bromide], the “inhibition of carbachol-induced contraction” value in series [1] (tiotropium bromide 3*10^−10 M) is given as 17.1±2.2%. Also, in series [2] (P<0.001), the “potency relative to TA 2005” value is given as 5.2 fold. Besides, the “ED50, acetylcholine-induced bronchoconstriction” value in series [2] amounted to 3.2 pmol. Further, the “effect on acetylcholine-induced bronchoconstriction” value in series [2] (tiotropium 0.1-30 pmol, TA 2005 0.3-100 pmol, alone) is “dose-dependently antagonize”.
